Assay: Biodistribution studies in ICR white mice: percent of injected dose of Tc-99m complex in brain tissue
Assay type: in vivo
Conditions: for % of Dose of Tc99m Complex in Brain, 5 min / % of Dose of Tc99m Complex in Brain, 10 min / % of Dose of Tc99m Complex in Brain, 15 min: ICR white mice, i.v. (tail), 0.5 to 2 microcuries, saline
Description: Biodistribution studies have been conducted with several complexes according to the present invention, in ICR white mice. A saline solution containing 0.5 to 2 microcuries of the Tc-99m complex was injected intravenously (tail), and the mice were sacrificed after 5, 10 or 15 minutes. The percent of the injected dose which was present in brain tissue was measured. […] On the other hand, the data reveal that the compounds containing the alkyl-amino group according to the present invention are retained in the brain for much longer times. For example, after 15 minutes, the concentration of compound 3 is 15 times that of compound 1.

SMILES | % of Dose of Tc99m Complex in Brain, 5 min | % of Dose of Tc99m Complex in Brain, 10 min | % of Dose of Tc99m Complex in Brain, 15 min | concentration in brain relative to that of compound 1 (after 15 minutes, mice, i.v., relative to compound 1) [times]
CC(C)(S)CNCCNCC(C)(C)S [Compound 1, reference compound] | 1.02 % of Dose | 0.30 % of Dose | 0.03 % of Dose | 
CN(C)CCN(CCNCC(C)(C)S)CC(C)(C)S [Compound 2] | 0.89 % of Dose | 0.30 % of Dose | 0.42 % of Dose | 
CC(C)NCCN(CCNCC(C)(C)S)CC(C)(C)S [Compound 3] | 0.64 % of Dose | 0.49 % of Dose | 0.49 % of Dose | 15
CC(C)(S)CNC(C)(C)CN(CCN1CCCCC1)CC(C)(C)S [Compound 9] | 2.19 % of Dose |  | 1.01 % of Dose | 
